# Earlier results as cited in patent publication US20080103122A1, “PHARMACEUTICAL COMBINATIONS FOR LIPID MANAGEMENT AND IN THE TREATMENT OF ATHEROSCLEROSIS AND HEPATIC STEATOSIS” (Schering Corporation, priority 2006, published 2008).
# Tested on: atherosclerotic plaques
# Details: mice; Zaiss et al., Circulation 100 (18 Suppl. I): 255 (1999)
compound,measurement,value
"Cc1cc(C)c2c3ccccc3n(Cc3ccc([C@@H](C(=O)N[C@@H](CO)c4ccccc4)C4CCCC4)cc3)c2n1 [implitiapide, 2,2-(S)-cyclopentyl-2-{[4-(2,4-dimethyl-alpha-carbolin-9-yl)methyl]phenyl}acetic acid-(R)-phenyl-glycinol-amide]",formation of atherosclerotic plaques,prevents the formation of atherosclerotic plaques
